From ChEMBL document CHEMBL1201862, “PubChem BioAssay data set” (2004) come the findings set out here.

Active and inactive are the calls of the source. Bounds are passed on as bounds.

Assay [1] is described as follows: inhibitors of HIV Env-driven cell fusion, dose response, cherry-pick (AID 652057). The class given is functional, cell-based.
In assay [2] the target is T1, Heat shock 70 kDa protein 1A (Homo sapiens, UniProt P0DMV8). Description: Hsp70 inhibitors, biochemical, TR-FRET (AID 786). A general note: TR-FRET usually uses a lanthanide donor and a delayed reading to cut background.
T1 sequence (P0DMV8 whole entry): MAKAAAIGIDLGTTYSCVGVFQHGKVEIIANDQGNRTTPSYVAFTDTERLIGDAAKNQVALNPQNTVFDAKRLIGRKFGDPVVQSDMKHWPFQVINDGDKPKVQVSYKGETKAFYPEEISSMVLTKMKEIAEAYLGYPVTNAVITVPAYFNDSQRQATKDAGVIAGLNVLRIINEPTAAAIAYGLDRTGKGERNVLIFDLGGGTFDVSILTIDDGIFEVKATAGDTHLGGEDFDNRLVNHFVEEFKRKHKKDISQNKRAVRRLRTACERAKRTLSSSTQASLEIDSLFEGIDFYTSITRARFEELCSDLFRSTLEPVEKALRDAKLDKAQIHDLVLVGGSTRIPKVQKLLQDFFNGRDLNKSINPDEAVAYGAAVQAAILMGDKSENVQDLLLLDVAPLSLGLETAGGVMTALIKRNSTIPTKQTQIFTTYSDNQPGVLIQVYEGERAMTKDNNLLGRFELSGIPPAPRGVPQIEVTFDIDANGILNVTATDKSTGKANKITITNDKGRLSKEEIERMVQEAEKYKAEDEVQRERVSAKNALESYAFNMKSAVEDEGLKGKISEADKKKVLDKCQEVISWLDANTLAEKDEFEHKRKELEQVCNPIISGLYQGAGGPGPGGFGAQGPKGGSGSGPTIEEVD
A further assay addresses T2, Insulin-degrading enzyme (Homo sapiens, UniProt P14735).
T2 sequence (P14735 whole entry): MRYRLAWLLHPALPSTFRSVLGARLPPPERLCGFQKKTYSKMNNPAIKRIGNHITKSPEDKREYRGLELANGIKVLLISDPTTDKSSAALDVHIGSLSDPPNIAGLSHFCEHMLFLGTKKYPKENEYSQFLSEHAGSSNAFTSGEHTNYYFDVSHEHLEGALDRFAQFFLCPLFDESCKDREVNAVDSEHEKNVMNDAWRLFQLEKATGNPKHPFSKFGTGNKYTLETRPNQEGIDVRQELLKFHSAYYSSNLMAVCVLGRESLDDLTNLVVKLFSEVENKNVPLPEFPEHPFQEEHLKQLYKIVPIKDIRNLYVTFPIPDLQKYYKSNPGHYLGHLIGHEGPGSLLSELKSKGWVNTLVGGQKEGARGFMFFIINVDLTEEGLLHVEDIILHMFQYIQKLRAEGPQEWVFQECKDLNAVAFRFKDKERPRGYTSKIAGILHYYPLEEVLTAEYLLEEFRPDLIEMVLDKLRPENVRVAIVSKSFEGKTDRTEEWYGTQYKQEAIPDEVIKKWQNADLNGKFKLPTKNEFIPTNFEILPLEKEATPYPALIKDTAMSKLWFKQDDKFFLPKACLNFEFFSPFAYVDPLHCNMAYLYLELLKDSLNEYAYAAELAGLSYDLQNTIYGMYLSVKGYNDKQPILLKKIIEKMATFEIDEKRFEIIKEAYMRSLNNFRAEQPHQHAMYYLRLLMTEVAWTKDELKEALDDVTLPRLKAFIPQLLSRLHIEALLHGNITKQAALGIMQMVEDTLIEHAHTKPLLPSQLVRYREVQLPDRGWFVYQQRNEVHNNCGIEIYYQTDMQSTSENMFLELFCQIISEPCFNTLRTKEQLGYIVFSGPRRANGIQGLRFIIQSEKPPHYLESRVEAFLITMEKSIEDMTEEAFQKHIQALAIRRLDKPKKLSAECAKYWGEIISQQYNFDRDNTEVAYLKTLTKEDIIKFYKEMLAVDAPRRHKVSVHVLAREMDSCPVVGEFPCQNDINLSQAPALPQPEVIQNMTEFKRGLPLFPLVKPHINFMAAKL
Kind of assay: Dose Response: Fluorescence polarization-based cell-based high throughput dose response assay for inhibitors of insulin-degrading enzyme (IDE). [Related pubchem assays: 434962 (Primary screen (IDE inhibitors in singlicate)), 449730 (Counterscreen (Cytotoxicity in triplicate)), 435028 (Confirmation (IDE inhibitors in triplicate)), 434984 (Summary …. The class given is functional.

The target in assay [3] is T3, Tyrosine-protein phosphatase non-receptor type 7 (Homo sapiens, UniProt P35236).
T3 sequence (P35236 whole entry): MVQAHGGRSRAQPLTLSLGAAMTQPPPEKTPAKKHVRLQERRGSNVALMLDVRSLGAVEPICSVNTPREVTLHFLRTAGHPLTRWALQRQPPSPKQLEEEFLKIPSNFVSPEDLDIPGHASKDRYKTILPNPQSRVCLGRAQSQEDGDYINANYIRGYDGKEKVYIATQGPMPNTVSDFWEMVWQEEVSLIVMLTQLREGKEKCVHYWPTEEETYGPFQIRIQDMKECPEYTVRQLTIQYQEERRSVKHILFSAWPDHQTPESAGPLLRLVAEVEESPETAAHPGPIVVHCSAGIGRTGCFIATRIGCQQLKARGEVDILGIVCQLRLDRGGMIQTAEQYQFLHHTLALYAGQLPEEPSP
Description: Dose Response confirmation of compounds that inhibit HePTP. [Related pubchem assays (depositor defined):AID1059, AID1661, AID2085]. The class given is functional.

The target of assay [4] is T1, Heat shock 70 kDa protein 1A. Kind of assay: Hsp70 inhibitors, probe displacement, primary screen, biochemical, fluorescence polarization (AID 583).
Assay [5] has as its target T4, Dual specificity protein phosphatase 3 (Homo sapiens, UniProt P51452). Kind of assay: Dose Response Confirmation of compounds that inhibit VHR1 in Fluorescent Assay. [Related pubchem assays (depositor defined):AID1661, AID1878]. The class given is functional.
A short description of assay [6]: CEM21 lymphoblast cell cytotoxicity, dose response, cytotoxicity control for viral fusion inhibitor project, CellTiter-Glo luminescence, cherry-picked (AID 652042).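 Note: potency for signal decrease meaning cytotoxicity.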 The class given is functional, cell-based. A general note: Cellular ATP, detected with luciferase, serves as a proxy for viable cell number.
Assay [7] in a line: Counterscreen for IDE inhibitors: Luminescence-based cell-based high throughput dose response assay to identify compounds that are cytotoxic to HEK cells. [Related pubchem assays: 434962 (Primary screen (IDE inhibitors in singlicate)), 449730 (Counterscreen (Cytotoxicity in triplicate)), 435028 (Confirmation (IDE inhibitors in triplicate)) …. The class given is functional. The conditions noted are these: HEK293. A general note: Counterscreens check selectivity or assay interference.

Assay [8] has as its target T4, Dual specificity protein phosphatase 3. Kind of assay: SAR VHR1 Fluorescent Assay for In Vitro dose response studies Set 3. [Related pubchem assays (depositor defined):AID1654, AID1661, AID1878]. The class given is functional.
Assay [9] has as its target Polyadenylate-binding protein 1 (Homo sapiens, UniProt P11940). Kind of assay: PABP poly(A) RNA binding inhibitors, primary screen, biochemical, fluorescence polarization, uHTS (AID 2014).
For the next assay, the target named is T5, fMet-Leu-Phe receptor (Homo sapiens, UniProt P21462).
T5 sequence (P21462 whole entry): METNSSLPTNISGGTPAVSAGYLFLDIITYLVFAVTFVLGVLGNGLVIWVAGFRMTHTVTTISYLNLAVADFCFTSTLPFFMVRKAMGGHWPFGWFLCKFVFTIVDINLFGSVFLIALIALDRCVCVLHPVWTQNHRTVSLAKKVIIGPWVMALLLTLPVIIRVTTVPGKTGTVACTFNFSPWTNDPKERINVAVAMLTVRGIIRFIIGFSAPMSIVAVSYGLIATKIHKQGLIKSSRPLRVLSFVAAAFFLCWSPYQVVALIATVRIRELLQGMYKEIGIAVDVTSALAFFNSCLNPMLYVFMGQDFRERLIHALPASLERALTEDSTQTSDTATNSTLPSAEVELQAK
Kind of assay: FPR ligands, dose response (AID 519). The class given is functional.

The target of assay [10] is Eukaryotic translation initiation factor 4H (Homo sapiens, UniProt Q15056). Description: human eIF4H binding inhibitors, primary screen, translation initiation inhibitor project, biochemical, uHTS, fluorescence polarization (AID 2012).
Assay [11] concerns the target Protein-tyrosine kinase 2-beta (Homo sapiens, UniProt Q14289).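 Note: potency of inhibitors of PYK2 kinase phosphorylation of poly-GT substrate.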
The nature of assay [12]: HEp-2 cell cytotoxicity, dose response, cytotoxicity control for RSV inhibitor project, HTS (AID 2410). The class given is functional. The conditions noted are these: human respiratory syncytial virus.
For assay [13], the system named is Vero. Kind of assay: cells. The class given is functional. The conditions noted are these: Chlorocebus sabaeus.
For assay [14], the system named is Vero. Kind of assay: cells. The class given is functional, cell-based. The conditions noted are these: Chlorocebus sabaeus.
Assay [15] has as its system HEK293. Kind of assay: cells. The conditions noted are these: Homo sapiens.
The test system of assay [16] is HEK293. Description: cells. The following applies: Homo sapiens. The source holds these as a separate data set.
A further assay concerns Escherichia coli. Kind of assay: microbe, parasite or virus in culture.
For a further assay, the target named is T6, Protein RecA (Mycobacterium tuberculosis, UniProt P9WHJ3).
T6 sequence (P9WHJ3 whole entry): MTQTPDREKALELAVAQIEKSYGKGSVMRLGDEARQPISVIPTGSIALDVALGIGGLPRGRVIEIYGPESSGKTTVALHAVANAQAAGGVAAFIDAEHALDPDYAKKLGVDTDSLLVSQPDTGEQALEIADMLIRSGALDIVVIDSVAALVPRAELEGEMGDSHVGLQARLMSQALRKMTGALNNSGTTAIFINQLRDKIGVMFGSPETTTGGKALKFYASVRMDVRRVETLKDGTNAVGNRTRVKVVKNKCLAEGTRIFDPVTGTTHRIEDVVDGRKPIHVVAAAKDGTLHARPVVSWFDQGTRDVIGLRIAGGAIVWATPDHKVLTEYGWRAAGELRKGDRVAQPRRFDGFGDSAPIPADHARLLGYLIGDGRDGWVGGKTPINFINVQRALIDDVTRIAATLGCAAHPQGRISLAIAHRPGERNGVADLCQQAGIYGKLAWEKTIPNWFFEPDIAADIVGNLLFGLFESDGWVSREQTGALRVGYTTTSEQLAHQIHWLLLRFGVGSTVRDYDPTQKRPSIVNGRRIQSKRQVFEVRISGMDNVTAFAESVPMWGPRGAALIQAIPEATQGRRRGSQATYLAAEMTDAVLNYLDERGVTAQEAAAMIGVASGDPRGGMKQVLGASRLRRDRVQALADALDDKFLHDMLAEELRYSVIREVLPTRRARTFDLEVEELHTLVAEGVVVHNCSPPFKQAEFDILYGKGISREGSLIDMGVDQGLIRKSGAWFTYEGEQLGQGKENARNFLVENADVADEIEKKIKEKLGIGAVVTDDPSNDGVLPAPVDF
Kind of assay: Fluorescence Cell-Free Homogeneous Dose Retest to Identify Inhibitors of RecA-Intein Splicing Activity. [Related pubchem assays (depositor defined):AID2097, AID2223, AID489010, AID492950]. The class given is functional.

The next assay addresses Keap1/Nrf2 (Homo sapiens, UniProt Q14145). Description: Keap1-Nrf2 protein-protein interaction inhibitors, dose response, biochemical, fluorescence polarization, cherry-picked samples (AID 588683).
The target in assay [17] is T7, Replicative DNA helicase DnaB (Mycobacterium tuberculosis, UniProt P9WMR3).
T7 sequence (P9WMR3 whole entry): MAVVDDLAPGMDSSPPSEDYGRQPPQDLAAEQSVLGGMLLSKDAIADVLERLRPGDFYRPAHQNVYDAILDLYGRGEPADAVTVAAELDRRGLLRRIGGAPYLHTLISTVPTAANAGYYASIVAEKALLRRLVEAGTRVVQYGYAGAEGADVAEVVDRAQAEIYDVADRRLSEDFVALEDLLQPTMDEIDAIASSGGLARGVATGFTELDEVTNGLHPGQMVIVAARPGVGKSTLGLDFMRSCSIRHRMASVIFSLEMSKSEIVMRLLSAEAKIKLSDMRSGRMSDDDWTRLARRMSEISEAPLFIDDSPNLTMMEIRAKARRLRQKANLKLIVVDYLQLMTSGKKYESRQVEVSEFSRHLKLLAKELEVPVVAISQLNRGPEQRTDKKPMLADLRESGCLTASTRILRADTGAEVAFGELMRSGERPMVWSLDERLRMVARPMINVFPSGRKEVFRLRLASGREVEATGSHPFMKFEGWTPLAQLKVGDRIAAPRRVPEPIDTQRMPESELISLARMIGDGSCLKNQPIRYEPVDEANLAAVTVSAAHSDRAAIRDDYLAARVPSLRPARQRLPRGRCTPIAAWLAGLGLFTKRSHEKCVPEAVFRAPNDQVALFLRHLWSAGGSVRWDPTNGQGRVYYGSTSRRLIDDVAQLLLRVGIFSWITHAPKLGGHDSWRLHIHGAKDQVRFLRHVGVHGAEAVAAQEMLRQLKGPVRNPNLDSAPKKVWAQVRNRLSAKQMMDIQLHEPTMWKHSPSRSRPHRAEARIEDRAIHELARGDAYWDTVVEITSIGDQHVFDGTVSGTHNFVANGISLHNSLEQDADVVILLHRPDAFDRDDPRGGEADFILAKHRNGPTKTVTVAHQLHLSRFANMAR
Kind of assay: DnaB intein splicing inhibitors, dose response, biochemical, cell-free fluorescence (AID 449749). The class given is functional.

The next assay has as its target Genome polyprotein (dengue virus type 2, UniProt P29990). Description: Dengue-2 NS5 methyltransferase inhibitors, primary screen, biochemical, confirmation dose response (AID 588689). The class given is functional.
Assay [18] relates to Vero. Kind of assay: Vero cell cytotoxicity, cytotoxicity control for flavivirus capping enzyme inhibitors (AID 588742). The class given is functional. The following applies: Chlorocebus sabaeus.

T4 sequence (P51452 whole entry, the tested form may be a part): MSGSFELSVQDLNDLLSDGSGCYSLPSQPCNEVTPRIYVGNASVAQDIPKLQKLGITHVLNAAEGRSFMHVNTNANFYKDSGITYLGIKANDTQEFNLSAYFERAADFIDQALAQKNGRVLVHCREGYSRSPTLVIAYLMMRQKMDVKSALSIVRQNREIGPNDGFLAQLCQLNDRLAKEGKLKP
Chain of Protein-tyrosine kinase 2-beta (Q14289 whole entry): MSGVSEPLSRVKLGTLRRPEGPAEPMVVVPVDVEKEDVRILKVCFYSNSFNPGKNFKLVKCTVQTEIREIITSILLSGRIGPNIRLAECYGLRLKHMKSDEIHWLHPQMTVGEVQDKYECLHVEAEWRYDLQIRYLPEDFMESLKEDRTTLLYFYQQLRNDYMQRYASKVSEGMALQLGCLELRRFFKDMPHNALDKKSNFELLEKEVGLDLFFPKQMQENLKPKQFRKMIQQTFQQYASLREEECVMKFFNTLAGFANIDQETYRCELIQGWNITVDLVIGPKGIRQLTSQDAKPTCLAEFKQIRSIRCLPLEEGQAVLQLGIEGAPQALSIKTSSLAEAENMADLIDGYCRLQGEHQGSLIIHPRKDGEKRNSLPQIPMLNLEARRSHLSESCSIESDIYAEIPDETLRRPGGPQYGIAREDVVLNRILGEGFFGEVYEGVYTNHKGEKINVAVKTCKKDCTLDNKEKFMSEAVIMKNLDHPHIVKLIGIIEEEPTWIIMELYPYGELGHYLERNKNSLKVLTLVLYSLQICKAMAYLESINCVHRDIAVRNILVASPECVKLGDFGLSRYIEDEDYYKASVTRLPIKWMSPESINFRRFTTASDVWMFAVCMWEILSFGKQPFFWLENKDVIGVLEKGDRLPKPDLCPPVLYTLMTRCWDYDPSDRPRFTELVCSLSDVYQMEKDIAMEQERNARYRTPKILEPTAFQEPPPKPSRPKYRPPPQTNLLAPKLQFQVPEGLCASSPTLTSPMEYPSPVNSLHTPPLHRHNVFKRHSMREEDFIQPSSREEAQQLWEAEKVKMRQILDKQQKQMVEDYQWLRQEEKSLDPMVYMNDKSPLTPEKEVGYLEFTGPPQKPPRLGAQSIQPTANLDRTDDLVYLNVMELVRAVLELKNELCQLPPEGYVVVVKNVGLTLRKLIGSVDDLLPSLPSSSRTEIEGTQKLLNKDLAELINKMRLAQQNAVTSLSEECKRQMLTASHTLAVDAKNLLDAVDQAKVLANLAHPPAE
Chain of Genome polyprotein (P29990 2492-3391 limits assumed): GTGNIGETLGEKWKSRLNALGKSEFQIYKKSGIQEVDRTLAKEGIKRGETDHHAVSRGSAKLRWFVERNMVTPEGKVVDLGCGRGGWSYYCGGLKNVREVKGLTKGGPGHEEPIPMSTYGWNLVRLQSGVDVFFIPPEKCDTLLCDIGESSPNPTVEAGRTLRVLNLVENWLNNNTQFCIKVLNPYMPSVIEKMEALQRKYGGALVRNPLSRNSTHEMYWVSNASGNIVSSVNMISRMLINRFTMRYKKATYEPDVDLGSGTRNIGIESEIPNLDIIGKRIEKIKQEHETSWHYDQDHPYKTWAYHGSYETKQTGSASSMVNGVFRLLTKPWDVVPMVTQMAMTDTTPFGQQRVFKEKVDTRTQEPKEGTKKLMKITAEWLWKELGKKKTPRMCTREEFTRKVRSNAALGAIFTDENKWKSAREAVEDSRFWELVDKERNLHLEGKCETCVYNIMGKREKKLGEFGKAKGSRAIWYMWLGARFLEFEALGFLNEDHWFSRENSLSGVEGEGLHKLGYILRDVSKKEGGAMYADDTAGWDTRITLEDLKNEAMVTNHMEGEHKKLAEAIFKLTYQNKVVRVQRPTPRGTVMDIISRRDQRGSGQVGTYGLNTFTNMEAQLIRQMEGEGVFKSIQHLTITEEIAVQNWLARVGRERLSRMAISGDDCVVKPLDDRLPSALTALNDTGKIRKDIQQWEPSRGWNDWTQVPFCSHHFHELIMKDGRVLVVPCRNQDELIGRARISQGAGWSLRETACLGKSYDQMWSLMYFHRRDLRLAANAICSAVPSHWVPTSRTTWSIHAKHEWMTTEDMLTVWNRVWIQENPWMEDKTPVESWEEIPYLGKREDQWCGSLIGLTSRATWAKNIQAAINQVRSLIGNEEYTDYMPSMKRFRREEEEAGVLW
Chain of Keap1/Nrf2 (Q16236 whole entry): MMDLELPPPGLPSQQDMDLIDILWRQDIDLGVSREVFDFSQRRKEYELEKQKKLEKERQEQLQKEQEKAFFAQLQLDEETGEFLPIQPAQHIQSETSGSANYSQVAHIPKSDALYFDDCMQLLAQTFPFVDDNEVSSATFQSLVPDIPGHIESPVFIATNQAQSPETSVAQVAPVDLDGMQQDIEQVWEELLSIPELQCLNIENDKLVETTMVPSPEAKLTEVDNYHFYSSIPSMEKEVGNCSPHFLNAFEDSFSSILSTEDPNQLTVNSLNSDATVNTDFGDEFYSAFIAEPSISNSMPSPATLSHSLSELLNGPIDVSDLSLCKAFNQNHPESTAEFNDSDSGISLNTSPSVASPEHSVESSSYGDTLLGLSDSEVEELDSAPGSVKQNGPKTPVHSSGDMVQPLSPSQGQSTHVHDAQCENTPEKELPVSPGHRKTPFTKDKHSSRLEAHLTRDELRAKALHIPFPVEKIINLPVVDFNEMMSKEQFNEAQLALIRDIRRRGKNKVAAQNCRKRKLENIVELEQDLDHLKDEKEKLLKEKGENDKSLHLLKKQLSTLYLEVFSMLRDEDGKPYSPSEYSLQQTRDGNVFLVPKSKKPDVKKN
Chain of Keap1/Nrf2 (Q14145 whole entry): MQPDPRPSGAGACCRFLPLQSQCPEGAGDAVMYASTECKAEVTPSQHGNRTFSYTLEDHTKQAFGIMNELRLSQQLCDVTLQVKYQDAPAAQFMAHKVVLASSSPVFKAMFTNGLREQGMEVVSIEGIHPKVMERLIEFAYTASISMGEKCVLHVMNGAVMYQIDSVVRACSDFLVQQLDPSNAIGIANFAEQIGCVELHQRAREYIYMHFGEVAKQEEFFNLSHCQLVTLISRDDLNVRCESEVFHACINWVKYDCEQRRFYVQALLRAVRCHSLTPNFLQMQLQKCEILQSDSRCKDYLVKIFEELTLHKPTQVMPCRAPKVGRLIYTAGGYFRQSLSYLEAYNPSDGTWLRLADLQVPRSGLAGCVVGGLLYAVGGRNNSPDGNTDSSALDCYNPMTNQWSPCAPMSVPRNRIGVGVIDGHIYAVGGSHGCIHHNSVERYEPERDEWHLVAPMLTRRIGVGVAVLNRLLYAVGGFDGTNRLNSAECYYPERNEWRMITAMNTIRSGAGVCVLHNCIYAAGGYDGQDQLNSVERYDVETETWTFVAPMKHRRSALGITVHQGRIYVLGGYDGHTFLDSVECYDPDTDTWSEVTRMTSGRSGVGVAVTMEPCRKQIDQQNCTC
Chain of Polyadenylate-binding protein 1 (P11940 whole entry): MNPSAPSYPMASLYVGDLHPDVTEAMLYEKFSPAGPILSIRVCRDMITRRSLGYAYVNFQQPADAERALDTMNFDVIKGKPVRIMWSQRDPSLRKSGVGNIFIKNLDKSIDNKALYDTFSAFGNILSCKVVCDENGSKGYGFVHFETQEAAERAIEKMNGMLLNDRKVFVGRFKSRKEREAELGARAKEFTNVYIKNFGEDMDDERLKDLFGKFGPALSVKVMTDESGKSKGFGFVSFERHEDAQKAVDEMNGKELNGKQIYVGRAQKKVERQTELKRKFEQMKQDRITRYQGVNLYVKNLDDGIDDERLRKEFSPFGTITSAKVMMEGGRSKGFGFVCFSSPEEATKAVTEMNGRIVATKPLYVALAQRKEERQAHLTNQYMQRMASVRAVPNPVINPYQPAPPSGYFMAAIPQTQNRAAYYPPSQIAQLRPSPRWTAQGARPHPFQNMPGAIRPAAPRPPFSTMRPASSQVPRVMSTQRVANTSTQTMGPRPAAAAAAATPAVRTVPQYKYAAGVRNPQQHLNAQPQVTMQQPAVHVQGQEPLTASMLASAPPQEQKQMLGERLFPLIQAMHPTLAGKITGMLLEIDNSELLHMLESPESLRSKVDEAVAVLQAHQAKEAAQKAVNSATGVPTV

`COc1ccc(-c2nnc(Nc3nc4c(OC)cccc4s3)o2)cc1`: the AC50 was 5.28 µM (active) in assay [1] and 52.2 µM (active) in assay [6]. Also, the IC50 was > 100 µM (not active) in assay [2]; > 55.9 µM (not active) against Insulin-degrading enzyme; 6.08 µM (active) in assay [3]; > 100 µM (not active) in [4]; 1.78 µM (active) in assay [5]; 17.1 µM (not active) in assay [7]. Also, the IC50 was 3.61 µM (active) in [8], > 100 µM (inactive) in assay [9], 12.5 µM (active) in assay [10] and 9.06 µM (active) in assay [11]. Moreover, at fMet-Leu-Phe receptor, the Ki is > 66.7 µM (inactive).

As for `CC1Cc2ccccc2N1S(=O)(=O)c1cccc(C(=O)N2CCN(c3ncccn3)CC2)c1` (stereo not given), the figures for the CC50 (in [12]; in the assay on Vero [13]) were 3.41 µM (active) and > 25 µM (active), respectively. Besides, the IC50 in the assay “cells” is 1.01 µM (active); in the assay with Vero [14], 2.15 µM (active).

For the compound `Cc1nn2c(nc(N3CCCCC3)c3ccccc32)c1C=O`, the EC50 in the assay with HEK293 [15] and in the assay with HEK293 [16] was > 59.7 µM (inactive) throughout.

As to `CCCC(C(=O)NNC(=O)c1cc(C)oc1C)c1ccccc1` (stereo not given), the AC50 with Escherichia coli was 31.7 µM (active).

`O=C1/C(=N\S(=O)(=O)c2ccc([N+](=O)[O-])cc2)C(Cl)=C(O)c2ccccc21`: the EC50 at Protein RecA is 1.26 µM (active). The AC50 on Keap1/Nrf2 was > 52 µM (inactive); in assay [17], 6.49 µM (active). Moreover, at Genome polyprotein, the IC50 was 76.9 µM (active). For the same compound, the CC50 in the assay with Vero [18] is 34.2 µM (active).

In general, AC50 refers to the concentration giving half of the maximal activity seen. As usually defined, the IC50 is the concentration that inhibits the measured activity by half. For orientation: Ki means a measure of affinity in units of concentration, obtained from inhibition or displacement. A word on the CC50: it is the concentration that lowers cell viability or growth by half. Broadly, the EC50 is the concentration needed to bring the measured effect to its halfway point.
